Laboratory results as given in the supplement of paper PMC10307832.

How the values were obtained:
Test in all cases: relative viability (nuclei count vs DMSO), 5 days (fraction); higher = more cells survive
[1] = compound: CC(O)(CS(=O)(=O)c1ccc(F)cc1)C(=O)Nc1ccc(C#N)c(C(F)(F)F)c1 [Bicalutamide] + O=C(CCCCCCC(=O)Nc1ccccc1)NO [Vorinostat] (partner 1 µM)
Summary of the method: (§1)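 The day after seeding in 1536-well plates, lung cancer cell lines were treated by pin tool with a single drug, or with a fixed anchor-drug dose together with five library-drug doses (not always all listed) in √10 steps. After 5 days, a combined fix-and-stain solution (final 0.05% Triton X-100, 1% formaldehyde, 1 ug/ml Hoechst) was added. Nuclei counted on 4× images gave relative viability as treated counts over vehicle counts, reported as the median of duplicate plates.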

[2] = compound: C(C(=O)C(=O)O)Br [Bromopyruvate] + O=C(c1cc(Cc2n[nH]c(=O)c3ccccc23)ccc1F)N1CCN(C(=O)C2CC2)CC1 [Olaparib] (partner 8 µM)
Summary of the method: as §1

[3] = compound: C(C(=O)C(=O)O)Br [Bromopyruvate] + Nc1nc2[nH]cc(CCc3ccc(C(=O)N[C@@H](CCC(=O)O)C(=O)O)cc3)c2c(=O)[nH]1 [Pemetrexed] (partner 0.2 µM)
Summary of the method: as §1

[4] = compound: CC(O)(CS(=O)(=O)c1ccc(F)cc1)C(=O)Nc1ccc(C#N)c(C(F)(F)F)c1 [Bicalutamide] + CS(=O)(=O)N1CCN(Cc2cc3nc(-c4cccc5[nH]ncc45)nc(N4CCOCC4)c3s2)CC1 [Pictilisib] (partner 1 µM)
Summary of the method: as §1

Cell Line	relative viability ([1]; first compound 0.08 µM)	relative viability ([1]; first compound 0.253 µM)	relative viability ([1]; first compound 0.8 µM)	relative viability ([1]; first compound 2.53 µM)	relative viability ([2]; first compound 1 µM)	relative viability ([2]; first compound 3.162 µM)	relative viability ([2]; first compound 10 µM)	relative viability ([2]; first compound 31.62 µM)	relative viability ([2]; first compound 100 µM)	relative viability ([3]; first compound 1 µM)	relative viability ([3]; first compound 3.162 µM)	relative viability ([3]; first compound 10 µM)	relative viability ([3]; first compound 31.62 µM)	relative viability ([3]; first compound 100 µM)	relative viability ([4]; first compound 0.08 µM)	relative viability ([4]; first compound 0.253 µM)	relative viability ([4]; first compound 0.8 µM)	relative viability ([4]; first compound 2.53 µM)
NCI-H1666	0.921	1.05	1.14	0.981	0.685	0.733	0.73	0.707	0.716	0.834	0.896	1.02	0.859	0.855	0.392	0.404	0.477	0.406
NCI-H1734	0.85	0.701	1.05	0.673	0.68	0.585	0.729	0.616	0.429	0.391	0.398	0.395	0.466	0.408	0.438	0.388	0.593	0.431
NCI-H1755	0.727	0.748	0.916	0.635	0.935	0.865	0.854	0.924	0.936	0.44	0.441	0.371	0.475	0.52	0.476	0.378	0.523	0.279
NCI-H1793	0.869	–	0.996	0.566	0.841	0.95	0.925	0.921	0.89	0.91	1.18	0.989	0.906	1.16	0.285	0.208	0.415	0.281
NCI-H1915	0.536	0.456	0.584	0.522	0.261	0.267	0.242	0.254	0.22	0.496	0.41	0.497	0.511	0.481	0.91	0.782	1	0.775
NCI-H1944	0.54	0.516	0.593	0.438	0.395	0.432	0.429	0.419	0.402	0.576	0.707	0.625	0.656	0.63	0.4	0.296	0.334	0.327
NCI-H1975	0.73	0.742	0.703	0.557	0.858	0.79	1.11	0.755	0.605	0.276	0.3	0.292	0.326	0.292	0.291	0.331	0.329	0.233
NCI-H1993	0.864	0.675	0.787	0.705	1.56	1	0.927	1.09	1.02	0.629	0.649	0.633	0.605	0.582	–	0.764	0.744	0.671
NCI-H2009	0.732	0.719	0.898	0.71	0.672	0.688	0.727	0.645	0.461	1.01	1.04	0.936	0.868	1.11	1.2	0.944	1.06	0.737
NCI-H2023	0.69	0.608	0.893	0.349	0.452	0.455	0.465	0.544	0.551	0.231	0.246	0.273	0.205	0.187	0.279	0.21	0.253	0.178
NCI-H2085	0.829	0.741	0.816	0.687	0.794	0.81	0.772	0.818	0.551	0.974	0.954	0.992	0.937	0.963	0.445	0.461	0.442	0.39
NCI-H2087	0.668	0.643	0.812	0.856	0.6	0.574	0.391	0.573	0.451	0.658	0.745	0.651	0.72	0.567	0.84	0.891	1.05	0.835
NCI-H2126	0.716	0.712	0.931	0.75	0.912	0.879	0.988	0.939	0.923	0.702	0.636	0.66	0.677	0.695	0.494	0.468	0.511	0.43
NCI-H2170	0.794	0.741	0.867	0.803	0.626	0.556	0.625	0.576	0.56	0.277	0.27	0.249	0.258	0.626	0.308	0.298	0.289	0.302
NCI-H2228	0.584	0.795	0.993	0.581	0.813	0.635	0.711	0.567	0.647	0.343	0.339	0.337	0.357	0.341	0.347	0.341	0.425	0.409
